# What was measured:
# HEI-OC1 cells [1] = assay: CYQUANT cell proliferation assay (DNA content) in HEI-OC1 cells; type: cell-based; details: 200 nM, 500 nM, 1 μM, 5 μM for 24 hours, t-test p<0.001, most noticeable at 200 and 500 nM
# Method: In an implementation, HEI-OC1 cells were treated with different concentrations (e.g., 200 nM, 500 nM, 1 μM, and 5 μM) of quinoxaline for 24-hours. Untreated cells were used as control groups. To quantify potential changes in cell proliferation following the treatment, DNA isolated from treated and untreated cells was submitted to CYQUANT analysis (Invitrogen, Grand Island, N.Y.), following the manufacturer's instructions for cell proliferation assay. The CYQUANT assay is based on the principle that cell number is proportional to the measurement of cellular DNA content. However, the use of the CYQUANT assay is offered by way of example only and is not meant to be restrictive of the present disclosure. In other embodiments, other types of cell proliferation assays can be used to quantify potential changes in cell proliferation. FIG. 3B illustrates the DNA content of untreated cells and quinoxaline-treated cells. […] Quinoxaline's effect in cell proliferation was most noticeable when cells were treated with lower concentrations (i.e., 200 nm and 500 nM) of the drug.
# HT 1080 cells = system: HT 1080 cells
# Method: (§1) Cytotoxicity effects for each drug were measured by the colorimetric MTT assay. The MTT assay includes a yellow tetrazole that is reduced to purple formazan in living cells. In this implementation, solubilization solution (e.g., dimethyl sulfoxide, an acidified ethanol solution, or a solution of the detergent sodium dodecyl sulfate in diluted hydrochloric acid) was added to dissolve the insoluble purple formazan product into a colored solution. The absorbance of this colored solution was quantified by measuring at a certain wavelength (e.g, between 500 and 600 nm) by a spectrophotometer where the degree of light absorption depends on the solvent. The MTT assay can provide a useful measure of cell viability and proliferation. To quantify cytotoxicity, 10 μl of 10 mg/ml of MTT reagent was added to a well containing cells, and the cells were incubated at 37° C. for 4 hours. The supernatant was aspirated and the purple-colored formazan product was dissolved in 100 μl of DMSO. Absorbance was measured at 590 nm. The average of triplicate wells was taken for each concentration of the drug, and cell viability was calculated by substituting the corresponding mean absorbance values using the following equation:
# (§2) A T-test (*=p<0.01; 0 μM=untreated cells) was used to compare toxicity between the two drugs at different concentrations.
# N2a cells = system: N2a cells
# Method: as §1, §2
# [2] = system: cisplatin-treated N2a cells; details: 1 μM quinoxaline pre-treatment, then 100 μM cisplatin
# Method: as §1, with “equation: […]” for “equation:”
# (§3) Cells were plated at a density of 20,000 cells per well overnight, followed by a pretreatment with varying concentrations of quinoxaline for one hour. […]
# HEI-OC1 cells [3] = type: cell-based; details: 24 hours
# Method: As previously done for HT 1080 and N2a cells, the potential cytotoxicity of quinoxaline was measured in HEI-OC1 cells. HEI-OC1 cells were treated with a crescent dosage of quinoxaline (i.e., 200 nM, 500 nM, 1 μM, 10 μM, 50 μM) for 24 hours and submitted to MIT analyses.
# [4] = system: cisplatin-treated HT 1080 cells; assay: Protective potential of quinoxaline pre-treatment on cisplatin-treated HT 1080 cells; type: cell-based, human; details: quinoxaline pre-treatment 1 hour, then 100 μM cisplatin 24 hours
# Method: as §1, with “equation: […]” for “equation:”
# as §3
# [5] = system: cisplatin-treated HEI-OC1 cells; assay: Protective potential of quinoxaline pre-treatment on cisplatin-treated HEI-OC1 cells; type: cell-based
# Method: HEI-OC1 cells were plated at a density of 20,000 cells per well overnight, followed by a pre-treatment with varying concentrations of quinoxaline (i.e., 200 nM, 1 μM, 10 μM, and 50 μM) for one hour.
# [6] = system: cochlear hair cells (organ of Corti); assay: In vivo chemoprotective and proliferative effects on cochlear hair cells of cisplatin-treated mice; details: C57BL/6 mice
# Method: The inner ear neurosensory epithelia, the organ of Corti (OC), were analyzed. FIGS. 4A through 4D illustrate the outer hair cells (OHCs) and inner hair cells (IHCs) in the middle turn of the cochlea of adult C57BL/6 mice submitted to different treatments. The control group was the untreated cochlea, illustrated in FIG. 4A.
Structure (SMILES),DNA content (cell proliferation) versus untreated cells (HEI-OC1 cells [1]),cytotoxicity (HT 1080 cells),"effect on cell proliferation (total number of cells) (HT 1080 cells; HT 1080 cells, 0.5 μM)",cell response compared with HT 1080 cells (N2a cells),cell proliferation [2],"cell death (HEI-OC1 cells [3]; HEI-OC1, dosages higher than 10 μM)","cell proliferation (HEI-OC1 cells [3]; HEI-OC1, lower doses of quinoxaline)",sensitivity of HEI-OC1 cells (HEI-OC1 cells [3]; quinoxaline concentrations higher than 5 μM),overall cytotoxicity versus 100 μM cisplatin only [4],survival rate ([5]; 200 nM quinoxaline 1 hour pre-treatment + 200 μM cisplatin 24 hours),survival rate ([5]; 1 μM quinoxaline 1 hour pre-treatment + 200 μM cisplatin 24 hours),cell survival ([5]; pre-treated with higher than 10 μM quinoxaline + 200 μM cisplatin),"cell proliferation (numbers of supernumerary cells) ([6]; low doses (e.g., 15 mg))",supernumerary myosin VIIa-positive cells at the IHC region ([6]; quinoxaline pre-treated ears),"myosin VIIa-positive hair cells in middle turn of cochlea ([6]; quinoxaline pre-treatment + cisplatin 20 mg/Kg, versus cisplatin only)"
c1ccc2nccnc2c1 [quinoxaline],statistically significant increase in DNA content,consistently lower than that of cisplatin,"modest, but quantifiable, positive effect on cell proliferation",No statistically significant differences,promoted their proliferation,"smaller, but quantifiable cell death",increase in cell proliferation,particularly sensitive,significantly reduced overall cytotoxicity,25%,40%,No statistically significant differences in cell survival,increase in the numbers of supernumerary cells,supernumerary myosin VIla-positive cells were observed,myosin VIla-positive hair cells were still observed
"N.N.[Cl][Pt][Cl] [cisplatin, reference compound]",–,–,–,No statistically significant differences,–,–,–,–,–,–,–,–,–,–,–

# From patent publication US9925185B1, “Treatment and prevention methods for mammalian neurosensory hair cells loss” (Creighton University, priority 2014, dated 2018)
